The values that follow come from patent publication US20150285760A1, “DIELECTROPHORETIC DEVICE FOR ANALYSIS OF CELL MECHANICS” (DREXEL UNIVERSITY, priority 2014, published 2015).

Holding throughout (format): cell-based
The subject of one assay is Endothelial cells. Put plainly: Atomic force microscopy cell stiffness (elastic modulus) after TNF-α treatment. Conditions: cells on 55 kPa micropatterned PA gels. An excerpt: Atomic force microscopy (AFM, Bioscope DAFM-2X, Veeco) was used to validate DEP device 100 cell stiffness measurements (elastic modulus). A silicon nitride cantilever with 1 μm spherical tip (196 μm long, 23 μm wide, 600 nm thick, spring constant 0.06 N/m, Novascan) was used to indent each measured cell at three distinct locations. Elastic modulus was estimated by fitting the first 200 nm of the indentation curves to a Hertz model (Solon et al., “Fibroblast adaptation and stiffness matching to soft elastic substrates,” Biophys. J., vol. […], pages 4453-4461, 2007). Three measurements per cell were averaged and defined as the cell stiffness. At least six cells for each cell condition or cell type were measured.
Endothelial cells were cultured for 24 hours on micropatterned PA gels with stiffness of 55 kPa using 25 μm fibronectin circles as the microspots 8 to allow focal adhesion formation. The micropatterned PA gel was used in a DEP device 100 of the present invention provided with a microfluidic chamber 14. The quadrupole electrodes 4 were lowered with a single cell aligned within the cage of each quadrupole electrode 4. TNF-α was introduced to the microfluidic chamber 14 to expose the cells thereto. Cell stiffness or cell elastic modulus of the endothelial cell after TNF-α treatment was measured using AFM.

For assay [1], the system named is porcine aortic endothelial cells. Put plainly: Atomic force microscopy cell stiffness (elastic modulus), cytochalasin D treatment. Conditions: 200 nM cytochalasin D for 15 minutes. Here is the method:
(§1) Cells were released from tissue culture dishes with trypsin, seeded onto micropatterned PA gels, and 30 minutes was allowed for the cells to attach to the microspots 8. The medium was replaced and the PA gel was washed to remove unattached cells. Cells were then incubated on the micropatterned PA gels for 16-24 hours prior to taking measurements. Before the measurements, the cells were transferred into serum-free CO2-independent medium (Invitrogen™). In some samples, the actin cytoskeleton was disrupted with 200 nM cytochalasin D (Sigma Aldrich) for 15 minutes at room temperature in serum-free CO2-independent medium.
Atomic force microscopy (AFM, Bioscope DAFM-2X, Veeco) was used to validate DEP device 100 cell stiffness measurements (elastic modulus). A silicon nitride cantilever with 1 μm spherical tip (196 μm long, 23 μm wide, 600 nm thick, spring constant 0.06 N/m, Novascan) was used to indent each measured cell at three distinct locations. […] At least six cells for each cell condition or cell type were measured.
(§2) Adhered porcine aortic endothelial cells were treated with cytochalasin D to determine the stiffness changes induced by cytochalasin D using the DEP device 100 of the present invention. […] The calculated cell elastic modulus in cytochalasin treated cells was about 0.3 kPa, while the cell elastic modulus in the untreated cells was calculated to be about […] (FIG. 10C).

Assay [2] shares this test system. The experiment in a line: DEP device cell deformation (centroid movement) of adhered cells. As for the experimental part: as §1
A micropatterned single cell array adhered to a PA gel was mounted on an inverted Olympus IX81 fluorescent microscope. The quadrupole DEP device 100 was attached to a micromanipulator (Eppendorf), and the electrodes were centered and lowered over a single adhered cell within approximately ˜10 μm of the cell. Electrical potential was applied using a function generator (BK Precision 3011B) set to 20 Vpp, 1 MHz. The positive function generator lead was diverted into two separate lines, each going to a resistance decade box, before connecting to diagonally opposing device electrodes as in FIG. 2D. With no extra resistance applied, both electrodes received the same voltage. Increasing resistance to one electrode decreased voltage to that electrode and therefore changed the magnitude of the DEP force as well as the force direction. […]
Bright-field images were taken every 0.5 seconds throughout each measurement. […] Cell deformation was quantified by measuring the distance between cell body centroid and the lower left corner of the cropped image. […]
as §2

Entries after “also recorded” stand apart in the source; their conditions may differ.

For TNF-α, the “endothelial cell stiffness / elastic modulus (AFM), change compared with untreated cells” value in the assay with Endothelial cells is listed as “Increased; also recorded: higher”.

Consider `C=C1[C@@H](C)[C@H]2[C@H](Cc3ccccc3)NC(=O)[C@]23[C@H](OC(C)=O)/C=C/[C@@](C)(O)C(=O)[C@@H](C)C/C=C/[C@H]3[C@@H]1O` [cytochalasin D], for which, in assay [1], the “calculated cell elastic modulus (AFM)” value is given as “about 0.3 kPa” and the “cell stiffness / cell modulus (AFM), change compared with untreated cells” value is “decreased the stiffness; also recorded: lower”. Moreover, in assay [2] (200 nM cytochalasin D for 15 minutes, compared with untreated adhered cells under the same DEP force), the “cell centroid movement / deformation under dielectrophoretic force” value was “Untreated endothelial cells showed centroid deformations consistently smaller than treated endothelia cells; also recorded: increased”. Moreover, the “cell centroid restoration to the center position” value in assay [2] (200 nM cytochalasin D for 15 minutes, compared with untreated cells) was “slower”. Moreover, the “cell stiffness (DEP device)” value in assay [2] (cytochalasin D treatment, three different DEP forces) was “decreases cell stiffness”.
